Assay results reported in patent US20130259882A1, “Conjugate of Folate and Antibody Preparation Method and Use Thereof” (priority 2010, published 2013).
Marks after values point to notes of the source that are not given here.

Tests used:
[1] = tested on: rats with rheumatoid arthritis; test: Complete Freund adjuvant induced rheumatoid arthritis model; assay type: in vivo, Wistar rat; details: Diclofenac sodium 10 mg/kg orally
Protocol: Rat IgG and complete Freund adjuvant are from Sigma. Diclofenac sodium enteric-coated tablets are from Beijing Novartis Pharma Ltd. RF detection kit is from Nanjing JianCheng Bioengineering Institute. • 2. Animal: 50 healthy and mature Wistar rat, both male and female, body weight 150˜200 g are provided by Wuhan University Laboratory Animal Center, China.
Diclofenac sodium positive control group were given 10 mg/kg Diclofenac sodium orally. Normal control group and model group were Intra-peritoneally injected equal amount of saline. The injections were performed once per day. After measurement of right foot volume on day 0, 0.1 ml complete Freund adjuvant was subcutaneously injected into right ankle. On day 21, the right foot volume was measured after the last injection. Rats were sacrificed with ether inhalation after taking blood samples. The blood samples were centrifuged to get serum for the detection of rheumatoid factor (RF).
Rheumatoid factors RF: 100 μl serum were used with RF detection kit.

[2] = tested on: folate receptor transfected MCF-7 cells; test: Breast cancer model: folate receptor transfected MCF-7 cells injected subcutaneously in mice, tumor volume and mean survival time; assay type: in vivo, nude mice
Protocol: Animal: 50 healthy and mature female nude mice, body weight 18-22 g are provided by Nanjing University Model Animal Center.
By weight, the mice were randomly divided into normal control group, model group, Epirubicin positive control group, FIG 5 mg/kg group and 40 mg/kg group, FGIG 5 mg/kg group and 40 mg/kg group. 7 days before the beginning of the experiment, the mice were maintained with feed without folic acid. From day 0, model group, epirubicin positive control group, FIG 5 mg/kg group or 40 mg/kg group and FGIG 5 mg/kg group or 40 mg/kg group were subcutaneously injected with folate receptor transfected MCF-7 cells (1×10^6) each. From day 5, FIG 5 mg/kg group and FIG 40 mg/kg group were intra-peritoneally injected with FIG 5 mg/kg and 40 mg/kg, respectively). FGIG 5 mg/kg group and FGIG 40 mg/kg group were intra-peritoneally injected with FGIG (5 mg/kg and 40 mg/kg, respectively). Epirubicin positive control group were intra-peritoneally injected with Epirubicin (200 mg/kg). Normal control group and model group were intra-peritoneally injected equal amount of saline. The injections were performed once time every four days. 15 days after injection, the mice were fasting. The next day after treatment, tumor volume was measured with vernier caliper and mean survival time was also calculated.
Volume: solid tumor volume was calculated using the following formula: V=0.5×L×W×H.

[3] = tested on: mice with inflammatory bowel disease; test: Acetic acid induced colitis (inflammatory bowel disease model); assay type: in vivo, Kunming mice; details: Mesalazine 600 mg/kg orally
Protocol: Mesalazine SR Granules are from Ethypharm (France). MPO detection kit is from Nanjing Jian-Cheng Bioengineering Institute. • 2. Animal: 50 healthy and mature male Kunming mice, body weight 18-22 g are provided by Nanjing University model animal center.
Mesalazine positive control group were given 600 mg/kg Mesalazine orally. Control group and model groups were i.p. injected with equal amount of saline. The injections were performed once per day.
Acetic acid stimulation was used to induce colitis. The mice were fasting on day 9, and on day 10, were anaesthetized with ether inhalation. Before injection, the intestinal was cleaned, with a polyethylene pipe containing 0.1 ml 6% acetic acid inserted about 1.5 cm into the anus.
Colon macroscopic damage index (CMDI): The entire colon was taken and scissored along the mesenteric. The adhesion, ulcer and congestion were scored by naked eye observation according to the Table 7. • 2. Myeloperoxidase (MPO): The tissues were weighted and homogenized (1:19, weight/volume) in Tris buffer. After homogenization and repeated freezing and thawing, the tissues were made to 5% homogenate. MPO detection was performed according to kit manufacturer's instructions and the protein level was detected using the Lowry method.

## O=C(O)Cc1ccccc1Nc1c(Cl)cccc1Cl [Diclofenac sodium]
[1]; day 21
  Joint injury score: 0.6 ± 0.22
[1]; rheumatoid factor in serum
  RF: 15.2 ± 1.99 pg/mL
[1]; right foot, day 21 vs day 0
  Toe volume difference: 0.090 ± 0.052 mL

## COc1cccc2c1C(=O)c1c(O)c3c(c(O)c1C2=O)C[C@@](O)(C(=O)CO)C[C@@H]3O[C@H]1C[C@H](N)[C@@H](O)[C@H](C)O1 [Epirubicin]
[2]; Epirubicin 200 mg/kg i.p.
  Mean survival time (days): 9 ^▴▴ days
[2]; Epirubicin 200 mg/kg i.p. every four days, day 16
  Volume of tumor (cm^3): 6.18 ± 1.34 ^▴▴ cm^3

## Nc1ccc(O)c(C(=O)O)c1 [Mesalazine]
[3]
  Colon coefficient (g/100 g): 1.21 ± 0.13 g/100 g
[3]; colon tissue
  MPO (U/mg · pro.): 2.42 ± 0.11 U/mg · pro.
[3]; score per Table 7
  Inflammation rating level: 1.9 ± 0.5
